The text below walks through data of patent US8178530B2, “Imidazolopyrazine compounds useful for the treatment of degenerative and inflammatory diseases” (Janssen Pharmaceutica NV, priority 2006, dated 2012).

The term IC50 denotes the concentration that inhibits the measured activity by half. A lower IC50 goes with greater potency in that assay. As usually defined, the EC50 is the concentration that produces a half-maximal response.

For one experiment, the target named is T1, MAPKAPK5 (Homo sapiens, UniProt Q8IW41).
T1 construct: 1 mU MAPKAP-K5
T1 sequence (Q8IW41 1-473): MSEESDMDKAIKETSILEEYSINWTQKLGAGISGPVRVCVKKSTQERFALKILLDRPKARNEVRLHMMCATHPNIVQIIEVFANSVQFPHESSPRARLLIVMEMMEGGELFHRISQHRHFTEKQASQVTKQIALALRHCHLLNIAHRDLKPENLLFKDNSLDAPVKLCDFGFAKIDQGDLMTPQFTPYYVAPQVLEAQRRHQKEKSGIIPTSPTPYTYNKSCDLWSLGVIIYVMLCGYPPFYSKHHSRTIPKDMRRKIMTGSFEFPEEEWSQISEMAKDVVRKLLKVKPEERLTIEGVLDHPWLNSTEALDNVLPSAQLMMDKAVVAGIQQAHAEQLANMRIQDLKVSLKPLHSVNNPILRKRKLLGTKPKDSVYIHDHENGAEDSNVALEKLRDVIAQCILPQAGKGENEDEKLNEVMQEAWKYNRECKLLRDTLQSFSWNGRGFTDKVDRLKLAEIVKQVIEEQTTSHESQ
Nature of the experiment: MAPKAP-K5 assay (FlashPlate, 33P-ATP). The conditions noted are these: 0.6 μM ATP, 30 minutes at room temperature. It is filed as biochemical. As to the method: 3 μM MAPKAP-K5 peptide substrate

The subject of another experiment is MMP1 expression by SFs. Put plainly: 'MMP assay': MMP1 expression by 'complex trigger' activated synovial fibroblasts (MMP1 ELISA). It is filed as cell-based, human. Particulars: Homo sapiens, Fibroblast, RASFs, 48 hrs. (In general: ELISA stands for enzyme-linked immunosorbent assay.)

For the compound `CN1CCN(c2ccc(Nc3ncc(-c4ccc(C(N)=O)nc4)n4ccnc34)cc2)CC1` [Compound 129, 5-{8-[4-(4-Methyl-piperazin-1-yl)-phenylamino]-imidazo[1,2-a]pyrazin-5-yl}-pyridine-2-carboxylic acid amide], the IC50 at MAPKAPK5 is above 1 µM. In the experiment on MMP1 expression by SFs, the half-maximal effective concentration (EC50) was above 1 µM.
As for `CN1CCN(c2ccc(Nc3ncc(-c4cc(C(N)=O)co4)n4ccnc34)cc2)CC1` [Compound 151], at MAPKAPK5, the IC50 was in the range of 0.001 to 0.1 µM. Besides, in the experiment on MMP1 expression by SFs, the EC50 fell in the range of 0.101 to 0.5 µM.
The corresponding values for `NC(=O)c1ncc(-c2cnc(Nc3ccc(N4CCOCC4)cc3)c3nccn23)s1` [Compound 173, 5-[8-(4-Morpholin-4-yl-phenylamino)-imidazo[1,2-a]pyrazin-5-yl]-thiazole-2-carboxylic acid amide] are above 1 µM and above 1 µM.
In the same order, the values of `CN1CCN(c2ccc(Nc3ncc(-c4ccc(C(N)=O)cc4)n4ccnc34)cc2)CC1` [Compound 143] are above 1 µM and 0.501 to 1 µM.
In the same order, the values of `CCNCCNC(=O)c1ccc(Nc2ncc(-c3cn[nH]c3)n3ccnc23)cc1` [Compound 56] are 0.101 to 0.5 µM and above 1 µM.
Consider `CCN(CC)CCNC(=O)c1ccc(Nc2ncc(-c3cn[nH]c3)n3ccnc23)cc1` [Compound 32, N-(2-Diethylamino-ethyl)-4-[5-(1H-pyrazol-4-yl)-imidazo[1,2-a]pyrazin-8-ylamino]-benzamide], for which the IC50 on MAPKAPK5 fell in the range of 0.101 to 0.5 µM. Moreover, the EC50 in the experiment on MMP1 expression by SFs was above 1 µM.
`CN1CCN(c2ccc(Nc3ncc(-c4ccnc(F)c4)n4ccnc34)cc2)CC1` [Compound 125, [5-(2-Fluoro-pyridin-4-yl)-imidazo[1,2-a]pyrazin-8-yl]-[4-(4-methyl-piperazin-1-yl)-phenyl]-amine] returned an IC50 at MAPKAPK5 above 1 µM. In addition, in the experiment on MMP1 expression by SFs, the EC50 is above 1 µM.
Turning to `CN1CCN(c2ccc(Nc3ncc(-c4ccc(C(N)=O)cn4)n4ccnc34)cc2)CC1` [Compound 128], the concentration for half-maximal inhibition (IC50) at MAPKAPK5 is above 1 µM. Moreover, the EC50 in the experiment with MMP1 expression by SFs is above 1 µM.
`NC(=O)c1ccc(-c2cnc(Nc3ccc(N4CCCCC4)cc3)c3nccn23)cc1` [Compound 144]: at MAPKAPK5, the 50% inhibitory concentration (IC50) is above 1 µM. Further, the EC50 in the experiment on MMP1 expression by SFs is 0.101 to 0.5 µM.
In the same order, the values of `CN1CCN(c2ccc(Nc3ncc(-c4ccc(C(N)=O)cc4)n4ccnc34)cc2Cl)CC1` [Compound 136, 4-{8-[3-Chloro-4-(4-methyl-piperazin-1-yl)-phenylamino]-imidazo[1,2-a]pyrazin-5-yl}-benzamide] are 0.101 to 0.5 µM and above 1 µM.
For `NC(=O)c1cnc(-c2cnc(Nc3ccc(N4CCOCC4)cc3)c3nccn23)s1` [Compound 158, 2-[8-(4-Morpholin-4-yl-phenylamino)-imidazo[1,2-a]pyrazin-5-yl]-thiazole-5-carboxylic acid amide], the 50% inhibitory concentration (IC50) against MAPKAPK5 is above 1 µM. The 50% effective concentration (EC50) with MMP1 expression by SFs was above 1 µM.
On to `C[C@@H]1CN(c2ccc(Nc3ncc(-c4cc(F)c(C(N)=O)c(F)c4)n4ccnc34)cc2)[C@@H](C)CN1C` [Compound 181], for which the IC50 against MAPKAPK5 lay in the range of 0.101 to 0.5 µM. In addition, in the experiment with MMP1 expression by SFs, the EC50 is above 1 µM.
Compound `CN1CCC(NC(=O)c2ccc(Nc3ncc(-c4cn[nH]c4)n4ccnc34)cc2)C1` (stereo not shown) [Compound 64] showed an IC50 at MAPKAPK5 of 0.101 to 0.5 µM. Besides, the EC50 in the experiment with MMP1 expression by SFs was above 1 µM.
The corresponding values for `CC(C)N1CCN(c2ccc(Nc3ncc(-c4coc(C(N)=O)c4)n4ccnc34)cc2)CC1` [Compound 204, 4-{8-[4-(4-Isopropyl-piperazin-1-yl)-phenylamino]-imidazo[1,2-a]pyrazin-5-yl}-furan-2-carboxylic acid amide] are 0.101 to 0.5 µM and 0.501 to 1 µM.
`O=C(NCc1cccnc1)c1ccc(Nc2ncc(-c3cn[nH]c3)n3ccnc23)cc1` [Compound 35] yielded a half-maximal inhibitory concentration (IC50) at MAPKAPK5 of 0.501 to 1 µM. Besides, the concentration for a half-maximal effect (EC50) in the experiment with MMP1 expression by SFs is above 1 µM.
In the same order, the values of `CN1CCN(c2ccc(Nc3ncc(-c4ccc(C(N)=O)c(Cl)c4)n4ccnc34)cc2)CC1` [Compound 124] are above 1 µM and above 1 µM.
In the case of `CCN(CC)CCNC(=O)c1ccc(Nc2ncc(-c3cn[nH]c3)n3ccnc23)cc1F` [Compound 82], at MAPKAPK5, the IC50 is 0.501 to 1 µM. Also, in the experiment on MMP1 expression by SFs, the concentration giving a half-maximal response (EC50) is above 1 µM.
As for `CN1CCN(c2ccc(Nc3ncc(-c4ccc(C(N)=O)cc4)n4ccnc34)cc2F)CC1` [Compound 171, 4-{8-[3-Fluoro-4-(4-methyl-piperazin-1-yl)-phenylamino]-imidazo[1,2-a]pyrazin-5-yl}-benzamide], at MAPKAPK5, the IC50 was above 1 µM. In the experiment with MMP1 expression by SFs, the EC50 lay within 0.101 to 0.5 µM.
In the same order, the values of `C[C@@H]1CN(c2ccc(Nc3ncc(-c4csc(C(N)=O)c4)n4ccnc34)cc2)[C@@H](C)CN1C` [Compound 186] are 0.101 to 0.5 µM and 0.501 to 1 µM.
Turning to `c1cn(-c2ccc(Nc3ncc(-c4cn[nH]c4)n4ccnc34)cc2)cn1` [Compound 168, (4-Imidazol-1-yl-phenyl)-[5-(1H-pyrazol-4-yl)-imidazo[1,2-a]pyrazin-8-yl]-amine], at MAPKAPK5, the concentration for half-maximal inhibition (IC50) is above 1 µM. Further, in the experiment on MMP1 expression by SFs, the EC50 is above 1 µM.
The compound `Cc1cc(C(N)=O)ccc1-c1cnc(Nc2ccc(N3CCN(C)CC3)cc2)c2nccn12` [Compound 120] displayed an IC50 against MAPKAPK5 above 1 µM. Further, in the experiment on MMP1 expression by SFs, the concentration giving a half-maximal response (EC50) is above 1 µM.
On MAPKAPK5, `O=C(NCCN1CCOCC1)c1ccc(Nc2ncc(-c3cn[nH]c3)n3ccnc23)cc1` [Compound 53] registered a concentration for half-maximal inhibition (IC50) of 0.101 to 0.5 µM. Besides, the EC50 in the experiment with MMP1 expression by SFs was above 1 µM.
For `CS(=O)(=O)c1ccc(Nc2ncc(-c3cn[nH]c3)n3ccnc23)cc1` [Compound 71], the IC50 against MAPKAPK5 was 0.101 to 0.5 µM. Besides, the EC50 in the experiment with MMP1 expression by SFs was above 1 µM.
The corresponding values for `NC(=O)c1ccc(-c2cnc(Nc3ccc(N4CCN(CCO)CC4)cc3)c3nccn23)cc1` [Compound 156] are 0.501 to 1 µM and 0.101 to 0.5 µM.
In turn, `CC(C)N1CCN(c2ccc(Nc3ncc(-c4ccc5c(c4)CNC5=O)n4ccnc34)cc2)CC1` [Compound 205, 5-{8-[4-(4-Isopropyl-piperazin-1-yl)-phenylamino]-imidazo[1,2-a]pyrazin-5-yl}-2,3-dihydro-isoindol-1-one] displayed an IC50 at MAPKAPK5 of 0.001 to 0.1 µM. Moreover, the EC50 in the experiment on MMP1 expression by SFs was above 1 µM.
At MAPKAPK5, `CN1CCN(c2ccc(Nc3ncc(-c4cc(F)c(C(N)=O)c(F)c4)n4ccnc34)cc2)CC1` [Compound 140] showed a half-inhibitory concentration (IC50) of 0.101 to 0.5 µM. Also, in the experiment on MMP1 expression by SFs, the concentration giving a half-maximal response (EC50) was above 1 µM.
With `CN(C)Cc1cc(Nc2ncc(-c3cn[nH]c3)n3ccnc23)ccc1N1CCOCC1` [Compound 218, (3-Dimethylaminomethyl-4-morpholin-4-yl-phenyl)-[5-(1H-pyrazol-4-yl)-imidazo[1,2-a]pyrazin-8-yl]-amine], the IC50 against MAPKAPK5 is above 1 µM. Further, in the experiment on MMP1 expression by SFs, the 50% effective concentration (EC50) is above 1 µM.
In the case of `CN(C)Cc1cn(-c2ccc(Nc3ncc(-c4ccc(C(N)=O)cc4)n4ccnc34)cc2)nn1` [Compound 166, 4-{8-[4-(4-Dimethylaminomethyl-[1,2,3]triazol-1-yl)-phenylamino]-imidazo[1,2-a]pyrazin-5-yl}-benzamide], the IC50 at MAPKAPK5 is above 1 µM. Moreover, the concentration giving a half-maximal response (EC50) with MMP1 expression by SFs was above 1 µM.
For the compound `CN1CCC(Oc2ccc(Nc3ncc(-c4ccc(C(N)=O)c(F)c4)n4ccnc34)cc2)CC1` [Compound 149], at MAPKAPK5, the IC50 was above 1 µM. Besides, the EC50 in the experiment on MMP1 expression by SFs is above 1 µM.
